Source: the supplement of paper PMC11451515

Assays:
Assay in all cases: AUC of viability dose-response curve (% viability x log10 dose units); higher = less sensitive
Conditions in all cases: 48 h
SEM cells = system: SEM cells
Method in brief: (§1)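 Leukemia cells adapted to each medium (500 or 1000 cells/well, 1536-well plates) were exposed to library compounds in DMSO for 48 h at 37°C at 11 threefold doses, 47 μM to 0.79 nM. Luminescence by CellTiter-Glo One was normalised per plate to DMSO and cell-free wells, then fitted with a four-parameter log-logistic curve on log10 dose. Curves above full viability were scaled and quality-control failures removed before area under the curve was integrated by trapezoidal rule.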

NOMO1 = system: NOMO1
Method in brief: as §1

P12-Ichikawa = system: P12-Ichikawa
Method in brief: as §1

[1] = RPMI 5 mM glucose + 10% dialyzed FBS

## CON(C)C(=O)N1\N=C(/S[C@]1(CCCN)C2=CC=CC=C2)C3=CC(=CC=C3F)F
SEM cells; HPLM + 10% dialyzed FBS
  AUC of viability dose-response curve: 130
SEM cells; RPMI 5 mM glucose + 10% FBS
  AUC of viability dose-response curve: 103
SEM cells; [1]
  AUC of viability dose-response curve: 105

## CCC1=C2CN3C(=O)\C4=C(/C=C3/C2=NC5=CC=C(O)C=C15)[C@@](O)(CC)C(=O)OC4
NOMO1; HPLM + 10% dialyzed FBS
  AUC of viability dose-response curve: 226
NOMO1; RPMI 5 mM glucose + 10% FBS
  AUC of viability dose-response curve: 211
NOMO1; [1]
  AUC of viability dose-response curve: 218
P12-Ichikawa; HPLM + 10% dialyzed FBS
  AUC of viability dose-response curve: 109
P12-Ichikawa; RPMI 5 mM glucose + 10% FBS
  AUC of viability dose-response curve: 102
P12-Ichikawa; [1]
  AUC of viability dose-response curve: 105
SEM cells; HPLM + 10% dialyzed FBS
  AUC of viability dose-response curve: 158
SEM cells; RPMI 5 mM glucose + 10% FBS
  AUC of viability dose-response curve: 137
SEM cells; [1]
  AUC of viability dose-response curve: 140

## COCCNCCCn1c(C(=O)CF)c(-c2ccc(C)cc2)c2c(N)ncnc21
NOMO1; HPLM + 10% dialyzed FBS
  AUC of viability dose-response curve: 470
NOMO1; RPMI 5 mM glucose + 10% FBS
  AUC of viability dose-response curve: 417
NOMO1; [1]
  AUC of viability dose-response curve: 453
P12-Ichikawa; HPLM + 10% dialyzed FBS
  AUC of viability dose-response curve: 456
P12-Ichikawa; RPMI 5 mM glucose + 10% FBS
  AUC of viability dose-response curve: 445
P12-Ichikawa; [1]
  AUC of viability dose-response curve: 448
SEM cells; HPLM + 10% dialyzed FBS
  AUC of viability dose-response curve: 438
SEM cells; RPMI 5 mM glucose + 10% FBS
  AUC of viability dose-response curve: 367
SEM cells; [1]
  AUC of viability dose-response curve: 410

## NC(=O)c1ncn([C@@H]2O[C@H](CO)[C@@H](O)[C@H]2O)c1N
NOMO1; HPLM + 10% dialyzed FBS
  AUC of viability dose-response curve: 468
NOMO1; RPMI 5 mM glucose + 10% FBS
  AUC of viability dose-response curve: 469
NOMO1; [1]
  AUC of viability dose-response curve: 465
P12-Ichikawa; HPLM + 10% dialyzed FBS
  AUC of viability dose-response curve: 467
P12-Ichikawa; RPMI 5 mM glucose + 10% FBS
  AUC of viability dose-response curve: 447
P12-Ichikawa; [1]
  AUC of viability dose-response curve: 455
SEM cells; HPLM + 10% dialyzed FBS
  AUC of viability dose-response curve: 443
SEM cells; RPMI 5 mM glucose + 10% FBS
  AUC of viability dose-response curve: 372
SEM cells; [1]
  AUC of viability dose-response curve: 458

## CC(=O)O[C@@]12CO[C@@H]1C[C@H](O)[C@]3(C)[C@@H]2[C@H](OC(=O)C4=CC=CC=C4)[C@]5(O)C[C@H](O)/C(=C(/[C@@H](O)C3=O)C5(C)C)C
NOMO1; HPLM + 10% dialyzed FBS
  AUC of viability dose-response curve: 423
NOMO1; RPMI 5 mM glucose + 10% FBS
  AUC of viability dose-response curve: 430
NOMO1; [1]
  AUC of viability dose-response curve: 430
P12-Ichikawa; HPLM + 10% dialyzed FBS
  AUC of viability dose-response curve: 421
P12-Ichikawa; RPMI 5 mM glucose + 10% FBS
  AUC of viability dose-response curve: 411
P12-Ichikawa; [1]
  AUC of viability dose-response curve: 426

## Cc1ccc(Nc2nccc(N(C)c3ccc4c(C)n(C)nc4c3)n2)cc1[S+](N)(=O)[O-]
NOMO1; HPLM + 10% dialyzed FBS
  AUC of viability dose-response curve: 462
NOMO1; RPMI 5 mM glucose + 10% FBS
  AUC of viability dose-response curve: 464
NOMO1; [1]
  AUC of viability dose-response curve: 476
P12-Ichikawa; HPLM + 10% dialyzed FBS
  AUC of viability dose-response curve: 450
P12-Ichikawa; RPMI 5 mM glucose + 10% FBS
  AUC of viability dose-response curve: 444
P12-Ichikawa; [1]
  AUC of viability dose-response curve: 450
SEM cells; HPLM + 10% dialyzed FBS
  AUC of viability dose-response curve: 400
SEM cells; RPMI 5 mM glucose + 10% FBS
  AUC of viability dose-response curve: 371
SEM cells; [1]
  AUC of viability dose-response curve: 388

## COC1=CC(=C2C(=O)N(COC/3=C/C(=O)N4\C=C/C=C(OCCN5CCCCC5)\C4=N3)[S+]([O-])(=O)C2=C1)C(C)C
NOMO1; HPLM + 10% dialyzed FBS
  AUC of viability dose-response curve: 460
NOMO1; RPMI 5 mM glucose + 10% FBS
  AUC of viability dose-response curve: 463
NOMO1; [1]
  AUC of viability dose-response curve: 471
P12-Ichikawa; HPLM + 10% dialyzed FBS
  AUC of viability dose-response curve: 477
P12-Ichikawa; RPMI 5 mM glucose + 10% FBS
  AUC of viability dose-response curve: 460
P12-Ichikawa; [1]
  AUC of viability dose-response curve: 470
SEM cells; HPLM + 10% dialyzed FBS
  AUC of viability dose-response curve: 476
SEM cells; RPMI 5 mM glucose + 10% FBS
  AUC of viability dose-response curve: 452
SEM cells; [1]
  AUC of viability dose-response curve: 436

## CNCCN(C)Cc1c[nH]nc1-c1ccc(O[C@H]2C[C@H](OCCC3CCOCC3)C2)cc1
NOMO1; HPLM + 10% dialyzed FBS
  AUC of viability dose-response curve: 457
NOMO1; RPMI 5 mM glucose + 10% FBS
  AUC of viability dose-response curve: 461
NOMO1; [1]
  AUC of viability dose-response curve: 465
P12-Ichikawa; HPLM + 10% dialyzed FBS
  AUC of viability dose-response curve: 457
P12-Ichikawa; RPMI 5 mM glucose + 10% FBS
  AUC of viability dose-response curve: 472
P12-Ichikawa; [1]
  AUC of viability dose-response curve: 468
SEM cells; HPLM + 10% dialyzed FBS
  AUC of viability dose-response curve: 436
SEM cells; RPMI 5 mM glucose + 10% FBS
  AUC of viability dose-response curve: 397
SEM cells; [1]
  AUC of viability dose-response curve: 431

## CC(=O)[C@H]1CC[C@H]2[C@@H]3C/C=C4/C[C@@H](O)CC[C@]4(C)[C@H]3CC[C@]12C
NOMO1; HPLM + 10% dialyzed FBS
  AUC of viability dose-response curve: 463
NOMO1; RPMI 5 mM glucose + 10% FBS
  AUC of viability dose-response curve: 472
NOMO1; [1]
  AUC of viability dose-response curve: 462
P12-Ichikawa; HPLM + 10% dialyzed FBS
  AUC of viability dose-response curve: 462
P12-Ichikawa; RPMI 5 mM glucose + 10% FBS
  AUC of viability dose-response curve: 461
P12-Ichikawa; [1]
  AUC of viability dose-response curve: 463
SEM cells; HPLM + 10% dialyzed FBS
  AUC of viability dose-response curve: 455
SEM cells; RPMI 5 mM glucose + 10% FBS
  AUC of viability dose-response curve: 470
SEM cells; [1]
  AUC of viability dose-response curve: 460

## CN1\C(=C(O)/C2=C(C=C(Cl)S2)[S+]1([O-])=O)C(=O)NC3=NC=CC=C3
NOMO1; HPLM + 10% dialyzed FBS
  AUC of viability dose-response curve: 459
NOMO1; RPMI 5 mM glucose + 10% FBS
  AUC of viability dose-response curve: 464
NOMO1; [1]
  AUC of viability dose-response curve: 477
P12-Ichikawa; HPLM + 10% dialyzed FBS
  AUC of viability dose-response curve: 438
P12-Ichikawa; RPMI 5 mM glucose + 10% FBS
  AUC of viability dose-response curve: 472
P12-Ichikawa; [1]
  AUC of viability dose-response curve: 458

## Cc1ccnc(N[S+](=O)([O-])c2ccc(NC(=O)Nc3ccc([S+](=O)([O-])Nc4nccc(C)n4)cc3)cc2)n1
P12-Ichikawa; HPLM + 10% dialyzed FBS
  AUC of viability dose-response curve: 274
P12-Ichikawa; RPMI 5 mM glucose + 10% FBS
  AUC of viability dose-response curve: 279
P12-Ichikawa; [1]
  AUC of viability dose-response curve: 270
SEM cells; HPLM + 10% dialyzed FBS
  AUC of viability dose-response curve: 236
SEM cells; RPMI 5 mM glucose + 10% FBS
  AUC of viability dose-response curve: 180
SEM cells; [1]
  AUC of viability dose-response curve: 210

## Cc1ccc([S+](=O)([O-])NC(=O)NN2CC3CCCC3C2)cc1 (stereo not drawn)
NOMO1; HPLM + 10% dialyzed FBS
  AUC of viability dose-response curve: 433
NOMO1; RPMI 5 mM glucose + 10% FBS
  AUC of viability dose-response curve: 436
NOMO1; [1]
  AUC of viability dose-response curve: 439
P12-Ichikawa; HPLM + 10% dialyzed FBS
  AUC of viability dose-response curve: 388
P12-Ichikawa; RPMI 5 mM glucose + 10% FBS
  AUC of viability dose-response curve: 378
P12-Ichikawa; [1]
  AUC of viability dose-response curve: 371
SEM cells; HPLM + 10% dialyzed FBS
  AUC of viability dose-response curve: 369
SEM cells; RPMI 5 mM glucose + 10% FBS
  AUC of viability dose-response curve: 334
SEM cells; [1]
  AUC of viability dose-response curve: 337
